ChEMBL document CHEMBL1201862, “PubChem BioAssay data set” (2004)
Calls of active or inactive are those of the source. Cut-off read from the data, not from the text of the source, for most assays here: actives have a measured EC50 and inactives only a lower limit.

Key:
[1] = target: T1, Heat shock factor protein 1 (Mus musculus, UniProt P38532); assay: inhibition of MG132-induced HSE-luciferase signal, confirmation, cell-based, NIH3T3, luminescence, dose retest (AID 2382); type: functional;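 note: NIH3T3 fibroblasts with HSF1-driven luciferase reporter stressed by proteasome inhibitor MG132; luminescence from HSF1-driven luciferase expression after 8 hours of MG132 stress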
T1 sequence (P38532 whole entry): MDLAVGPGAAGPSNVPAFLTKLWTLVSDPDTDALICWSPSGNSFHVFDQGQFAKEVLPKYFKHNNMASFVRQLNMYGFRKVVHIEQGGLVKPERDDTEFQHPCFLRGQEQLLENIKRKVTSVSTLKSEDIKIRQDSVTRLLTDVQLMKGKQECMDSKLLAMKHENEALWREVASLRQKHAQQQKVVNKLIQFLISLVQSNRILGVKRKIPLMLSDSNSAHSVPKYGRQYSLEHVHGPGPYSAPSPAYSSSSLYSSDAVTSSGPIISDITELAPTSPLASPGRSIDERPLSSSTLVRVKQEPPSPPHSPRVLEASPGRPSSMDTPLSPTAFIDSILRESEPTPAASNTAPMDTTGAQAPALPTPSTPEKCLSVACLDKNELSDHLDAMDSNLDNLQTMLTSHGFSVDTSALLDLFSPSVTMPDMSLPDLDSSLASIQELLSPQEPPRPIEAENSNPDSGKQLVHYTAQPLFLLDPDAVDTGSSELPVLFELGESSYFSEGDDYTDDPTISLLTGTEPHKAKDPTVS

[2] = inhibitors of intracellular T. cruzi replication, confirmation, NIH3T3 host cells, beta-gal luminescence (AID 2044); type: functional, cell-based;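 note: intracellular parasites grown in NIH/3T3 mouse fibroblasts as host cells; luminescent beta-galactosidase reporter signal from transgenic T. cruzi replicating inside host cells; inhibitors lower the luminescence signal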
[3] = cytotoxicity toward NIH3T3 fibroblasts, dose response, counter-screen, cell-based, ATP luminescence, mouse fibroblasts (AID 2010); type: functional;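 note: cells exposed to compound for about 90 hours before reading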
[4] = system: Streptococcus sp. 'group A'; assay: growth inhibition of control SK(-) GAS strain, dose response, counter-screen for streptokinase expression inhibitor project, luminescence, kanamycin, BacTiterGlo, confirmation (AID 1900); type: functional, organism-based
[5] = system: Streptococcus; assay: Group A Streptococcus viability loss, dose response, counter-screen for streptokinase expression inhibitor project, luminescence, BacTiterGlo (AID 1915); type: functional, organism-based;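 note: potency for reduction of bacterial viability or growth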
[6] = target: T2, Rac GTPase-activating protein 1 (Homo sapiens, UniProt Q9H0H5); assay: MgcRacGAP GTPase-activating activity inhibitors, confirmation, biochemical, ADP Hunter fluorescence, primary and confirmatory (AID 624330); type: functional
T2 sequence (Q9H0H5 whole entry): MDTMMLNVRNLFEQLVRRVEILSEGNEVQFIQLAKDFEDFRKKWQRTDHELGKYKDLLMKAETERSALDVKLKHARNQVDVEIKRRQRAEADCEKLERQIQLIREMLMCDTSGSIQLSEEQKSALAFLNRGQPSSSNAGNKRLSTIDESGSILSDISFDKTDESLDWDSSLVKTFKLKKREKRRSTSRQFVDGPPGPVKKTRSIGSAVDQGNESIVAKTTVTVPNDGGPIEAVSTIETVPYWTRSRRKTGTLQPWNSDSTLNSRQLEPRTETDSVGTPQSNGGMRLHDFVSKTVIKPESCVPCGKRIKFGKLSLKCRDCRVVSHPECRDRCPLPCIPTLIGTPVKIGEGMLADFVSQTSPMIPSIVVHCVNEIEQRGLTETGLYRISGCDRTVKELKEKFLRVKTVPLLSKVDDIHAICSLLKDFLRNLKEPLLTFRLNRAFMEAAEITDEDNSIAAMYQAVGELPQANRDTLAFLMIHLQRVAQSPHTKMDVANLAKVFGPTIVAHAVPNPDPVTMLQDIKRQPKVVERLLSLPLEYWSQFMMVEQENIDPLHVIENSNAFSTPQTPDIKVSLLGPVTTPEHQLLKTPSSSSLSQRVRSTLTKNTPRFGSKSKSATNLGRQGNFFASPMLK

[7] = target: T3, Streptokinase A (Streptococcus pyogenes serotype M1, UniProt P10520); assay: S. pyogenes streptokinase expression inhibitors, potency, dose response, plasminogen activation absorbance, OD405 (AID 1914); type: functional, Streptococcus pyogenes M1 GAS;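 note: secreted streptokinase activity via plasminogen activation per viability signal from cell pellet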
T3 sequence (P10520 whole entry): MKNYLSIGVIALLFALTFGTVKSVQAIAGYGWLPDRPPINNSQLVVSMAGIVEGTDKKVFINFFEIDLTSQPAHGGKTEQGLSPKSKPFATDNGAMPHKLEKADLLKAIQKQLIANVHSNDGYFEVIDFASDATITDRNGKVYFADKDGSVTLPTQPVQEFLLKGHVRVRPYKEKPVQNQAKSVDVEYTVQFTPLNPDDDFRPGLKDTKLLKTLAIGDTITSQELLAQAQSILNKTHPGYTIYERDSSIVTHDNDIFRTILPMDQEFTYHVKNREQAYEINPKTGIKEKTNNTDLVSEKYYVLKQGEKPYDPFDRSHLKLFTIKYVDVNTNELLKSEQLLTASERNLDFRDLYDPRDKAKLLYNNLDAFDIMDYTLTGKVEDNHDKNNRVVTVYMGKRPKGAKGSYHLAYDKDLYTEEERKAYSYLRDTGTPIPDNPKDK

## CC(O/N=C\c1ccccc1O)C(=O)Nc1ccccc1C(=O)N1CCOCC1 (configuration not stated)
[1]
  EC50: > 195 µM (not active)

## Cc1cccc(NC(S)=NC(NC(=O)OCc2ccccc2)C(Cl)(Cl)Cl)c1 (configuration not stated)
[2]
  EC50: 3.39 µM (active)
[3]
  EC50: > 60 µM (not active)

## Cc1onc(-c2c(Cl)cccc2Cl)c1C(=O)NC1C(=O)N2C1SC(C)(C)C2C(=O)O (configuration not stated)
[4]
  EC50: < 0.06 µM (active)
[5]
  EC50: < 0.06 µM (active)

## CC12CCC(C(=O)N3CCN(C(c4ccccc4)c4ccccc4)CC3)(OC1=O)C2(C)C (configuration not stated)
[2]
  EC50: 1.56 µM (active)
[3]
  EC50: > 60 µM (inconclusive)

## CSCc1nnc2n1-c1ccc(Cl)cc1C(c1ccccc1)=NC2
[1]
  EC50: > 195 µM (not active)

## CCCCNC(=O)C(c1ccc(OCC(=O)OC)c(C(=O)OC)c1)N(CCc1c[nH]c2ccccc12)C(=O)CCCCCN1C(=O)NC(c2ccc(-c3ccccc3)cc2)C(C(=O)OCc2ccccc2)=C1C (configuration not stated)
[1]
  EC50: > 195 µM (not active)

## CCn1c(COc2ccc(C)cc2)nnc1SCC(=O)Nc1ccc2c(c1)OCCO2
[1]
  EC50: > 195 µM (not active)

## c1cc2c(cc1CN1CCN(C3CCCCCC3)CC1)OCO2
[6]
  IC50: 91.9 µM (active)

## NC(=O)COC(=O)c1cc(O)nc2ccccc12
[1]
  EC50: > 195 µM (not active)

## COc1ccccc1C(O)(C(=O)N(NC(C)=O)c1ccccc1)c1ccccc1OC
[1]
  EC50: > 195 µM (not active)

## Cc1ccc(S(=O)(=O)N2CCN(CC(=O)N/N=C\c3ccncc3)CC2)cc1
[1]
  EC50: > 195 µM (not active)

## COc1cccc(CCNCc2cccc(C(F)(F)F)c2)c1
[2]
  EC50: 0.97 µM (active)
[3]
  EC50: > 30 µM (not active)

## CCCn1c(NC(=O)c2ccccc2Br)nc2ccccc21
[4]
  EC50: 10.2 µM (active)
[7]
  EC50: > 150 µM (not active)
[5]
  EC50: 30.5 µM (active)

## O=C(CN1CCN(Cc2ccccc2)CC1)Nc1ccc(F)c(F)c1
[6]
  IC50: 73.9 µM (active)

## CCc1cccc(CC)c1N=C(S)N1CCn2cccc2C1c1cccnc1 (configuration not stated)
[1]
  EC50: > 195 µM (not active)

## O=S(=O)(c1ccc2ccccc2c1)N1CCN(C2CCN(Cc3ccccc3)CC2)CC1
[6]
  IC50: 108 µM (active)

## COc1ccc(CCNC(=O)C(=O)Nc2ccc3nc4n(c(=O)c3c2)CCCCC4)cc1OC
[4]
  EC50: 11.3 µM (active)
[7]
  EC50: > 150 µM (not active)
[5]
  EC50: > 150 µM (not active)

## CC1CN(CCOCCOc2ccccc2-c2ccccc2)CC(C)O1 (configuration not stated)
[6]
  IC50: 87.5 µM (active)

## CC(C)(C)c1ccc(OCC(=O)Nc2ccc(C(=O)Nc3ccccc3C(=O)O)cc2)cc1
[4]
  EC50: 4.27 µM (active)
[5]
  EC50: 22.9 µM (active)

## O=C1[C@H]2[C@@H](c3ccc(Cl)cc3)N3C(=O)N(c4cccc(F)c4)C(=O)[C@@]3(Cc3ccc(Cl)cc3)[C@H]2C(=O)N1C1CCCCC1
[2]
  EC50: 1.21 µM (active)
[3]
  EC50: > 30 µM (not active)

## CCN1CCN(CC(=O)Nc2nc3ccc(OC)cc3s2)CC1
[6]
  IC50: 74.3 µM (active)

## CC/C(=N\NS(=O)(=O)c1ccc(C)cc1)c1ccco1
[1]
  EC50: > 195 µM (not active)

## COc1cc(NC(=O)c2ccco2)c(OC)cc1NC(=O)Nc1cccc(Cl)c1
[2]
  EC50: 1.79 µM (active)
[3]
  EC50: > 60 µM (not active)

## O=[N+]([O-])c1ccc(OCCN2CCNCC2)cc1
[2]
  EC50: 0.132 µM (active)
[3]
  EC50: > 60 µM (not active)

## CN1CCN(/C=N/C2=NN(c3cccc(C(F)(F)F)c3)CC2)CC1
[6]
  IC50: 33.9 µM (active)

## C=CCc1c(C)nc(-c2ccccc2)nc1N/N=C/c1ccncc1
[2]
  EC50: 0.941 µM (active)
[3]
  EC50: 6.59 µM (active)

## COc1ccc(NC(=O)CNCc2cccs2)c(OC)c1
[6]
  IC50: 284 µM (active)

## CSc1ccccc1NC(=O)CNCCCN1CCOCC1
[6]
  IC50: 81.9 µM (active)

## CCN(CC)c1ccc(NC(=O)c2ccc3c(c2)OCO3)cc1
[6]
  IC50: 52.9 µM (active)

## CCCOc1ccc(Cc2c(Cl)nc(SC)nc2N(C)C)cc1
[4]
  EC50: 20.8 µM (active)
[7]
  EC50: 24.5 µM (active)
[5]
  EC50: > 150 µM (not active)

## O=C(c1cccc([N+](=O)[O-])c1)N1CCc2ccccc21
[1]
  EC50: > 195 µM (not active)

## CCCCCCCCN1[C@@H](CC(=O)OCC)c2ccc(C(F)(F)F)cc2S1(=O)=O
[2]
  EC50: 0.87 µM (active)
[3]
  EC50: 37.8 µM (active)

## Cc1cccc(C)c1NC(=O)N1C(C(=O)O)CSC1C(=O)O (configuration not stated)
[1]
  EC50: > 195 µM (not active)

## CCCOc1ccc(CC(=O)N/N=C\c2ccc(F)cc2)cc1
[1]
  EC50: > 195 µM (not active)

## COc1ccc(N2CCN(C(=O)CCCN3C(=O)c4cccc5cccc(c45)C3=O)CC2)cc1
[2]
  EC50: 2.45 µM (active)
[3]
  EC50: > 60 µM (inconclusive)

## CC(=O)N(C)C1=C(O)C(=O)c2ccccc2C1=O
[1]
  EC50: > 195 µM (not active)

## COc1ccc(C2CC(c3cccs3)=NN2C(=O)c2ccc(Br)o2)cc1 (configuration not stated)
[4]
  EC50: 6.42 µM (active)
[7]
  EC50: > 150 µM (not active)
[5]
  EC50: 27.4 µM (active)

## CCOC(=O)C1=C(N)OC2=C(C(=O)CC(C)(C)C2)C1c1ccccc1OCC#N (configuration not stated)
[1]
  EC50: > 195 µM (not active)

## Cc1nn(Cc2ccccc2Cl)c2sc(C(=O)Nc3ccccc3N3CCOCC3)cc12
[4]
  EC50: 45.4 µM (active)
[7]
  EC50: > 150 µM (not active)
[5]
  EC50: > 150 µM (not active)

## CCN(CC)CCCNC(=O)C1CCC(CNS(=O)(=O)c2ccc(Cl)cc2)CC1 (configuration not stated)
[1]
  EC50: > 195 µM (not active)

## CC(=O)Nc1cc(C(=O)N(C)Cc2ccco2)ccc1Sc1ccc(C)cc1
[1]
  EC50: > 195 µM (not active)

## CN1CCN(c2ccc([N+](=O)[O-])c(N3CCCCC3)c2)CC1
[2]
  EC50: 0.661 µM (active)
[3]
  EC50: > 30 µM (not active)

## O=C1c2ccccc2C2=Nc3ccccc3SC(c3cccc(F)c3)C12 (configuration not stated)
[2]
  EC50: 1.27 µM (active)
[3]
  EC50: > 60 µM (not active)

## CCOc1ccc(C2Nc3ccc4ccccc4c3-c3c2c(=O)oc2ccccc32)cc1 (configuration not stated)
[2]
  EC50: 1.26 µM (active)
[3]
  EC50: > 60 µM (not active)

## CCC(N=C(S)NCc1ccccc1)C(=O)O (configuration not stated)
[1]
  EC50: > 195 µM (not active)

## CCN1CCN(C(=O)N[C@@H](C(=O)N[C@@H]2C(=O)N3[C@@H]2SC(C)(C)[C@@H]3C(=O)O)c2ccccc2)C(=O)C1=O [PIPERACILLIN SODIUM]
[4]
  EC50: 0.361 µM (active)
[5]
  EC50: 0.746 µM (active)

## COc1cc2c(cc1NC(=S)Nc1cccc3ccccc13)oc1ccccc12
[6]
  IC50: 70.2 µM (active)

## CC/C(=N\c1ccc(N)cc1)C1=C(O)C(C(=O)OC)C(C)(C)CC1=O (configuration not stated)
[6]
  IC50: 6.8 µM (active)

## CC1(C)S[C@@H]2[C@H](NC(=O)COc3ccccc3)C(=O)N2C1C(=O)OCC1CCCCC1 (some centres not stated)
[4]
  EC50: 9.95 µM (active)
[7]
  EC50: > 150 µM (not active)
[5]
  EC50: 14 µM (active)

## O=C(c1ccc(Cl)cc1)c1cnc(Nc2ccccc2Cl)s1
[4]
  EC50: 18.9 µM (active)
[7]
  EC50: > 150 µM (not active)
[5]
  EC50: 30.5 µM (active)

## O=C(/C=C/c1ccccc1)NC(=S)NNC(=O)c1ccco1
[4]
  EC50: 3.86 µM (active)
[7]
  EC50: > 150 µM (not active)
[5]
  EC50: 11.2 µM (active)

## Cc1ccccc1OCCC(=O)Nc1ccc(S(=O)(=O)N(C)C2CCN(C)CC2)cc1
[2]
  EC50: 0.324 µM (active)
[3]
  EC50: > 30 µM (not active)

## NNc1nc(Nc2ccccc2)nc(Nc2ccccc2)n1
[4]
  EC50: 6.74 µM (active)
[7]
  EC50: 23.5 µM (active)
[5]
  EC50: > 150 µM (not active)
